Laboratory results reported in patent US7598244B2, “[1,2,4]triazolo[1,5,a]pyrimidin-2-ylurea derivative and use thereof” (Nippon Kayaku Kabushiki Kaisha, priority 2003, dated 2009).

Tested on: MHC class I molecules of T1 cells (human lymphoma cell line 174×CEM.)
Assay: Effect on expression of MHC class I from T1 cells (flow cytometry, MFI)
Type: cell-based
Settings: 3 days culture
Summary of the method: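 EC20 is the compound level that lowers MHC class I MFI by 20% relative to compound-free cultures. Read-out was flow cytometry after FITC W6/32 staining.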

Compound	EC20 (concentration necessary for suppressing 20% of the expression level of MHC class I molecules)
COC(C)(C)CCC[C@H](C)NC(=O)Nc1nc2nccc(-c3cccs3)n2n1 [Example 288]	20 nM
CC(C)NC(=O)Nc1nc2nccc(-c3cccc(OCCCN(C)C)c3)n2n1 [Example 192]	900 nM
C[C@H](NC(=O)Nc1nc2nccc(-c3cccs3)n2n1)c1ccc(O)cc1 [Example 182]	280 nM
COc1ccc(-c2ccnc3nc(NC(=O)NC(C)CC(C)C)nn23)cc1 (racemic) [Example 235]	590 nM
CCOCCC(C)NC(=O)Nc1nc2nccc(-c3ccc4c(c3)OCO4)n2n1 (stereo not shown) [Example 327, 1-[7-(3,4-methylenedioxyphenyl)-[1,2,4]triazolo[1,5-a]pyrimidin-2-yl]-3-(3-ethoxy-1-methylpropyl)urea]	150 nM
CCCC(C)NC(=O)Nc1nc2nccc(-c3cccs3)n2n1 (stereo not shown) [Example 284]	190 nM
COc1ccc(-c2ccnc3nc(NC(=O)NCCN4CCOCC4)nn23)cc1 [Example 064]	670 nM
CCCCNC(=O)[C@@H](NC(=O)Nc1nc2nccc(-c3ccc(OC)cc3)n2n1)C(C)C [Example 091]	210 nM
COc1cc(C(C)NC(=O)Nc2nc3nccc(-c4ccc5c(c4)OCO5)n3n2)cc(OC)c1OC (stereo not shown) [Example 302, 1-[7-(3,4-methylenedioxyphenyl)-[1,2,4]triazolo[1,5-a]pyrimidin-2-yl]-3-[1-(3,4,5-trimethoxyphenyl)ethyl]urea]	180 nM
COc1ccc(-c2ccnc3nc(NC(=O)N[C@@H](C)c4ccc(Br)cc4)nn23)cc1 [Example 129]	180 nM
CCOCC[C@H](C)NC(=O)Nc1nc2nccc(-c3ccc(OCC4CCOCC4)cc3)n2n1 [Example 328]	70 nM
CC(C)CCC[C@H](C)NC(=O)Nc1nc2nccc(-c3cccs3)n2n1 [Example 246]	50 nM
CCCC(C)NC(=O)Nc1nc2nccc(-c3ccc(OC)cc3)n2n1 (stereo not shown) [Example 285]	320 nM
CC(C)CCC[C@H](C)NC(=O)Nc1nc2nccc(-c3cccc(OCC4CCCO4)c3)n2n1 (stereo partly shown) [Example 260]	60 nM
CCOCC[C@H](C)NC(=O)Nc1nc2nccc(-c3ccc(O)cc3)n2n1 [Example 329]	60 nM
CC[C@H](NC(=O)Nc1nc2nccc(-c3ccc(OC)cc3)n2n1)C(=O)NC(C)C(=O)OC (stereo partly shown) [Example 150]	710 nM
COCCOCCOCCOc1cccc(-c2ccnc3nc(NC(=O)N[C@@H](C)CCCC(C)C)nn23)c1 [Example 265]	110 nM
COc1ccc(-c2ccnc3nc(NC(=O)N[C@@H](Cc4ccccc4)C(=O)OC(C)(C)C)nn23)cc1 [Example 112]	850 nM
COc1ccc(-c2ccnc3nc(NC(=O)NC(C)CCCN(C)C(=O)OC(C)(C)C)nn23)cc1 (stereo not shown) [Example 282]	58 nM
COc1ccc(-c2ccnc3nc(NC(=O)NCc4ccc5c(c4)OCO5)nn23)cc1 [Example 215]	150 nM

Compound	EC20 (concentration necessary for suppressing 20% of the expression level of MHC class I molecules)
CC(CCC(C)(C)O)NC(=O)Nc1nc2nccc(-c3cccs3)n2n1 (stereo not shown) [Example 318]	40 nM
CCC(C)NC(=O)Nc1nc2nccc(-c3ccc(OC)cc3)n2n1 (stereo not shown) [Example 100]	320 nM
COc1ccc(-c2ccnc3nc(NC(=O)N[C@H](C(=O)NC4CCCCC4)C(C)C)nn23)cc1 [Example 094]	200 nM
O=C(Nc1nc2nccc(-c3cccs3)n2n1)NC1CCCC1 [Example 028]	152 nM
CC[C@H](NC(=O)Nc1nc2nccc(-c3ccc(OC)cc3)n2n1)C(=O)Nc1ccccc1 [Example 148]	260 nM
CC(COCC1CCOCC1)NC(=O)Nc1nc2nccc(-c3cccs3)n2n1 (stereo not shown) [Example 331]	150 nM
COCOc1cccc(-c2ccnc3nc(NC(=O)N[C@@H](C)c4cccc(OC)c4)nn23)c1 [Example 212]	180 nM
COc1cc(C(C)NC(=O)Nc2nc3nccc(-c4cccs4)n3n2)cc(OC)c1OC (stereo not shown) [Example 294]	70 nM
1-(4-methoxy-1-methylbutyl)-3-[7-(4-methoxyphenyl)-[1,2,4]triazolo[1,5-a]pyrimidin-2-yl]urea [Example 333]	410 nM
CCC[C@H](NC(=O)Nc1nc2nccc(-c3ccc(OC)cc3)n2n1)C(=O)N1CCOCC1 [Example 152]	780 nM
COc1cccc([C@H](C)NC(=O)Nc2nc3nccc(-c4cccc(OCC(=O)N5CCOCC5)c4)n3n2)c1 [Example 253]	270 nM
COCCOc1ccc(-c2ccnc3nc(NC(=O)N[C@@H](C)c4cccc(OC)c4)nn23)cc1 [Example 244, (S)-1-{7-[4-(2-methoxyethoxy)phenyl]-[1,2,4]triazolo[1,5-a]pyrimidin-2-yl}-3-[1-(3-methoxyphenyl)ethyl]urea]	19 nM
COCCOc1ccc(-c2ccnc3nc(NC(=O)N[C@@H](C)c4cccc(OC)c4)nn23)cc1OCCOC [Example 251]	60 nM
COc1ccc(-c2ccnc3nc(NC(=O)N[C@H](C(=O)Nc4ccccc4)C(C)C)nn23)cc1 [Example 088]	150 nM
COCCOCOc1ccc(-c2ccnc3nc(NC(=O)N[C@@H](C)c4cccc(OC)c4)nn23)cc1 [Example 227]	70 nM
COc1cccc([C@H](C)NC(=O)Nc2nc3nccc(-c4cccc(OCCc5ccncc5)c4)n3n2)c1 [Example 209]	40 nM
CCOCCC(C)NC(=O)Nc1nc2nccc(-c3cccs3)n2n1 (stereo not shown) [Example 281]	120 nM
COCCCC(C)NC(=O)Nc1nc2nccc(-c3cccs3)n2n1 (stereo not shown) [Example 315]	270 nM
COc1cccc(-c2ccnc3nc(NC(=O)N[C@@H](C)CCCC(C)C)nn23)c1 [Example 188]	80 nM
COc1ccc(-c2ccnc3nc(NC(=O)N[C@@H](C)C(=O)NCc4ccccc4)nn23)cc1 [Example 119]	210 nM
